# Experimental data from US20170008888A1 (KYORIN PHARMACEUTICAL CO., LTD., priority 2014, published 2017).
# Like-named read-outs stand apart in the source and are kept apart here.
# What was measured:
# ERK5 = biological target: T1, ERK5 (Homo sapiens, UniProt Q13164); experiment: Probe-based (AX9989 acyl phosphate ATP probe) kinase profiling in Jurkat lysate: ERK5; format: binding; conditions: for IC50: Jurkat lysate; for inhibition at 0.1 µM: screening concentration 0.1 μM; for inhibition at 10 µM: screening concentration 10 μM
# T1 construct: screened for activity against several kinases in Jurkat cells; endogenous in cells; host or cells: Jurkat cell lysate
# T1 sequence (Q13164 whole entry): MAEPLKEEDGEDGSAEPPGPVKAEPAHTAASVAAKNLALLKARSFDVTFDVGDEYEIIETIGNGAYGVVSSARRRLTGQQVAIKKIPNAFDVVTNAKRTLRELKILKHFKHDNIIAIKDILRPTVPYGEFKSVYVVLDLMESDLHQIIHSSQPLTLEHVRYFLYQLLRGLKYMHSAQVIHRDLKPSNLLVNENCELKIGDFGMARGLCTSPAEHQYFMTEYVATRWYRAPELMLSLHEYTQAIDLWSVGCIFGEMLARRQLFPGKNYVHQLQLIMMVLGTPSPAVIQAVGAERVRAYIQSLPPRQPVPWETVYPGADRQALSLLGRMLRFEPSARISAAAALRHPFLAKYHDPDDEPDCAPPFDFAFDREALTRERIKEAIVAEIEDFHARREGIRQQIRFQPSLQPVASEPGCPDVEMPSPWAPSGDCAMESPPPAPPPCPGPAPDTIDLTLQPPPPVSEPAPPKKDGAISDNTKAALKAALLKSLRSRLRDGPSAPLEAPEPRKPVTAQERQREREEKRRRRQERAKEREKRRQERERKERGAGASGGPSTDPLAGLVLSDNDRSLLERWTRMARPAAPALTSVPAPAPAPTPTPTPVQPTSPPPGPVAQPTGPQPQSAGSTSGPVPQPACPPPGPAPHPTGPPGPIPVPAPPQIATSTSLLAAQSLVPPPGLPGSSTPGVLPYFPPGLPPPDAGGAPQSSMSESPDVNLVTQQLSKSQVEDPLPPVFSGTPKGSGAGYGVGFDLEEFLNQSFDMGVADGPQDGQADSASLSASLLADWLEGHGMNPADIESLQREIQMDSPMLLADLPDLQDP
# Summary of the method: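 Gel-filtered Jurkat lysate (5 mg/ml, 20 mM MnCl2) preincubated 15 min at room temperature with compound, then labelled with 5 μM AX9989 acyl phosphate ATP probe. Probe-labelled ERK5 active-site peptides quantified by LC/MS after trypsin digestion and streptavidin capture; IC50 calculated from percent inhibition at the screening concentration.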
# [1] = biological target: T2, BRD4 bromodomain domain I [BRD4(1)] (Homo sapiens, UniProt O60885); experiment: BRD4 bromodomain domain 1 inhibition assay (TR-FRET); format: binding; conditions: screening concentration 10 μM
# T2 construct: BRD4 bromodomain domain I [BRD4(1)]; purchased Cayman Chemicals
# Summary of the method: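 0.5% DMSO, in triplicate, using Cayman BRD4(1) TR-FRET protocol with slight modification. 670/620 nm ratio normalized to 10 μM JQ1, with DMSO control set as 0% inhibition.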
# AurB or AurC = experiment: Probe-based (AX9989) kinase profiling in Jurkat lysate: AurB or AurC; format: binding
# Summary of the method: (§1)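 Gel-filtered Jurkat lysate (HEPES pH 7.5, 20 mM MnCl2, 5 mg/ml) was pre-incubated 15 min with compound at room temperature, then labelled with 5 μM acyl-phosphate ATP probe AX9989. Tryptic probe-labelled active-site peptides were streptavidin-captured and quantified by LC/MS. Percent inhibition reflected the decrease in labelled-peptide intensity versus no compound.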
# ABL or ARG = experiment: Probe-based (AX9989) kinase profiling in Jurkat lysate: ABL or ARG; format: binding
# Summary of the method: as §1
# human PBMCs = experiment: Human PBMC TNF-α response to endotoxin (ELISA); format: cell-based; conditions: 0.1 μg/ml LPS 16 h, read-out: EC50 for the inhibition of the human PBMC TNF-α response to endotoxin, ave. ± S.D.
# Summary of the method: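 PBMCs at 2e6 cells/ml in RPMI 1640 with 10% charcoal-dextran-treated FBS were pre-treated 1 h at 37 °C with compound (4-point 1:5 dilution from 10 μM). Stimulation with 0.1 μg/ml E. coli 0111:B4 LPS for 16 h; TNF-α measured by ELISA (A450) in 25-fold diluted supernatant.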
# [2] = calculated from percent inhibition of AX9989 labeling and the screening concentration
# [3] = screening concentration 1.0 μM, read-out: Kinase inhibition % at indicated screening concentration: ERK5
# [4] = read-out: Kinase inhibition % at indicated screening concentration: ERK5
# [5] = calculated from percent inhibition and screening concentration, AX9989 probe
# [6] = read-out: ERK5 Inhibition % at indicated screening concentration
Compound,IC50 (ERK5; [2]) [nM],inhibition at 1 µM (ERK5; [3]) [%],inhibition at 10 µM [1] [%],Kinase inhibition % at indicated screening concentration: AurB or AurC (AurB or AurC; screening concentration 1.0 μM),Kinase inhibition % at indicated screening concentration: ABL or ARG (ABL or ARG; screening concentration 1.0 μM),EC50 (human PBMCs) [nM],inhibition at 0.1 µM (ERK5; [4]) [%],Kinase inhibition % at indicated screening concentration: AurB or AurC (AurB or AurC; screening concentration 0.1 μM),Kinase inhibition % at indicated screening concentration: ABL or ARG (ABL or ARG; screening concentration 0.1 μM),IC50 (ERK5; [5]) [nM],inhibition at 10 µM (ERK5; [6]) [%],AurB or AurC Inhibition % at indicated screening concentration (AurB or AurC; screening concentration 10 μM),ABL or ARG Inhibition % at indicated screening concentration (ABL or ARG; screening concentration 10 μM),"inhibition at 1 µM (ERK5; screening concentration 1 μM, read-out: ERK5 Inhibition % at indicated screening concentration) [%]",AurB or AurC Inhibition % at indicated screening concentration (AurB or AurC; screening concentration 1 μM),ABL or ARG Inhibition % at indicated screening concentration (ABL or ARG; screening concentration 1 μM)
CCOc1cc(C(=O)N2CCN(CCOCCO)CC2)ccc1Nc1cc2c(cn1)N(C)C(=O)c1ccccc1N2C [Compound 6],≤ 50,> 90,> 85,E (E is ≦35%),E (E is ≦35%),540,,,,,,,,,,
CCOc1cc(C(=O)N2CCCN(C)CC2)ccc1Nc1cc2c(cn1)N(C)C(=O)c1ccccc1N2C [Compound 8],101 to 500,> 90,70 to 85,E (E is ≦35%),E (E is ≦35%),650,,,,,,,,,,
CCOc1cc(C(=O)N2CCN(CC3CC3)CC2)ccc1Nc1cc2c(cn1)N(C)C(=O)c1ccccc1N2C [Compound 10],≤ 50,,70 to 85,,,1280,75 to 90,E (E is ≦35%),E (E is ≦35%),,,,,,,
"CCOc1cc(C(=O)N2CCC(N3CCCC3)CC2)ccc1Nc1cc2c(cn1)N(C)C(=O)c1ccccc1N2C [Compound 46, 3-(2-Ethoxy-4-(4-(pyrrolidin-1-yl)piperidine-1-carbonyl)phenylamino)-5,11-dimethyl-5H-benzo[e]pyrido[3,4-b][1,4]diazepin-10(11H)-one]",≤ 50,> 90,> 85,E (E is ≦35%),E (E is ≦35%),470,,,,,,,,,,
Cc1cc(CN2CC[C@@H](N3CCCC3)C2)ccc1Nc1cc2c(cn1)N(C)C(=O)c1ccccc1N2C [Compound 49],≤ 50,,> 85,,,1510,> 90,E (E is ≦35%),E (E is ≦35%),,,,,,,
CCOc1cc(C(N)=O)ccc1Nc1cc2c(cn1)N(C)C(=O)c1ccccc1N2C [Compound 51],101 to 500,,< 70,,,2040,35 to 50,E (E is ≦35%),E (E is ≦35%),,,,,,,
CCOc1cc(C(=O)N2CCC(O)CC2)ccc1Nc1cc2c(cn1)N(C)C(=O)c1ccccc1N2C [Compound 52],50 to 100,> 90,70 to 85,E (E is ≦35%),E (E is ≦35%),820,,,,,,,,,,
CN1C(=O)c2occc2N(C)c2cc(N[C@H]3CC[C@H](N)CC3)ncc21 [Compound 53],101 to 500,75 to 90,70 to 85,E (E is ≦35%),E (E is ≦35%),4130,,,,,,,,,,
CCOc1cc(C(=O)NCCCN(CC)CC)ccc1Nc1cc2c(cn1)N(C)C(=O)c1ccccc1N2C [Compound 54],101 to 500,75 to 90,> 85,E (E is ≦35%),E (E is ≦35%),600,,,,,,,,,,
CCOc1cc(C(=O)NCCN(C(C)C)C(C)C)ccc1Nc1cc2c(cn1)N(C)C(=O)c1ccccc1N2C [Compound 55],≤ 50,,70 to 85,,,1160 ± 450,50 to 75,E (E is ≦35%),E (E is ≦35%),,,,,,,
CCOc1cc(C(=O)N2CC[C@@H](N3CCCCC3)C2)ccc1Nc1cc2c(cn1)N(C)C(=O)c1occc1N2C [Compound 56],≤ 50,,> 85,,,600 ± 190,> 90,E (E is ≦35%),E (E is ≦35%),,,,,,,
CCOc1cc(C(=O)NCC2CC2)ccc1Nc1cc2c(cn1)N(C)C(=O)c1ccccc1N2C [Compound 57],101 to 500,50 to 75,< 70,E (E is ≦35%),E (E is ≦35%),1080,,,,,,,,,,
CCOc1cc(C(=O)N2CCC(N3CCN(C)CC3)CC2)ccc1Nc1cc2c(cn1)N(C)C(=O)c1ccccc1N2C [Compound 61],50 to 100,> 90,> 85,E (E is ≦35%),E (E is ≦35%),890 ± 290,,,,,,,,,,
CCOc1cc(C(=O)N2CCNCC2)ccc1Nc1cc2c(cn1)N(C)C(=O)c1ccccc1N2C [Compound 62],≤ 50,> 90,70 to 85,E (E is ≦35%),E (E is ≦35%),720,,,,,,,,,,
CCOc1cc(C(=O)N2CCC(OC)CC2)ccc1Nc1cc2c(cn1)N(C)C(=O)c1ccccc1N2C [Compound 63],50 to 100,> 90,70 to 85,E (E is ≦35%),E (E is ≦35%),870,,,,,,,,,,
CN1C(=O)c2ccccc2N(C)c2cc(NC3CCC(C(=O)NC4CCOCC4)CC3)ncc21 (stereo not drawn) [Compound 64],101 to 500,75 to 90,< 70,E (E is ≦35%),E (E is ≦35%),3170,,,,,,,,,,
CCOc1cc(C(=O)N2CCC(N3CCN(C)CC3)CC2)ccc1Nc1cc2c(cn1)N(C)C(C(F)(F)F)c1ccccc1N2C (stereo not drawn) [Compound T47],,,,,,3970,,,,> 500,50 to 75,E (E is ≦35%),E (E is ≦35%),,,
CCOc1cc(C(=O)N2CCC(NCCF)C2)ccc1Nc1cc2c(cn1)N(C)C(C(F)(F)F)c1ccccc1N2C (stereo not drawn) [Compound T54],,,,,,7140,,,,> 500,50 to 75,E (E is ≦35%),E (E is ≦35%),,,
CCOc1cc(C(=O)N[C@H]2CC[C@@H](O)CC2)ccc1Nc1cc2c(cn1)N(C)C(=O)c1ccccc1N2C [Compound T63],,,,,,750,,,,101 to 500,,,,75 to 90,E (E is ≦35%),E (E is ≦35%)
